Consider 23 compounds from patent publication US20260334439A1, “BCAT2 INHIBITORS” (Agios Pharmaceuticals, Inc., priority 2023, published 2026).

Experiment [1] deals with T1, BCAT2 (Homo sapiens, UniProt O15382).
T1 sequence (O15382 28-392): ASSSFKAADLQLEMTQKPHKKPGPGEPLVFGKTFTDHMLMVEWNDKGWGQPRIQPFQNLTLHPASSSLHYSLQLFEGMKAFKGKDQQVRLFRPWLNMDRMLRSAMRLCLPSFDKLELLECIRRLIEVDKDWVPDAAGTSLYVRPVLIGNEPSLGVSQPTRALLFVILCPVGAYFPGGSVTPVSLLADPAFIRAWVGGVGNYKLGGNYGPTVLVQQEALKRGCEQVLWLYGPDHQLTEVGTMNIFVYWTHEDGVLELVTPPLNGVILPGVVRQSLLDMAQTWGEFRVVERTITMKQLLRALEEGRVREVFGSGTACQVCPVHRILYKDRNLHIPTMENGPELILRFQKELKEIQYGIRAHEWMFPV
Briefly: BCAT2 in vitro enzyme inhibition assay (hBCAT2, glutamate dehydrogenase/diaphorase/resazurin coupled fluorescence read). The class given is biochemical. Conditions: hBCAT2, 1 h preincubation at 25° C., one hour reaction; average where tested multiple times. The gist of the method:
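hBCAT2 (0.33 μg/mL in mix) preincubated 1 h at 25 °C with compound (top 100 μM, 3-fold, 10 points) in Tris pH 8.0/NaCl/BSA; substrate mix added (L-leucine, α-ketoglutarate, GDH, NAD, diaphorase, resazurin), quenched with SDS after 1 h, fluorescence Ex 540/Em 590; duplicates, repeat tests averaged.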
A general note: Resazurin is reduced to fluorescent resorufin, in cell work by metabolically active cells.

Experiment [2] addresses T1, BCAT2. Briefly: BCAT2 cell inhibition using engineered A549 cells (MUT KO, BCAT1 KO; 13C6-KMV formation by LC-MS/MS). In kind it is cell-based. Further details: expressed endogenous BCAT2; endogenous in cells; host or cells: A549 cells, MUT knockout and BCAT1 knockout. The gist of the method:
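Medium 13C6-KMV formation is read by LC-MS/MS after PFBHA derivatization with d8-KMV internal standard. Cells are CRISPR MUT/BCAT1 double-knockout A549 expressing endogenous BCAT2, given compound 15 min before labelled isoleucine (800 uM, added 1:1) for 24 h. CTG viability run in parallel; replicates averaged.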

Where [3] appears, read: read-out: BCAT2 Cell Inhibition (IC50), engineered A549 cells, 24 hours, 13C6-KMV in media, average where tested multiple times.

As a reminder, the IC50 is the concentration that gives 50% inhibition. `COc1ccc(C#N)cc1C(=O)N[C@H]1CCC[C@@H](n2c(-c3ccccc3F)nc3cnc(-c4nc[nH]n4)cc32)C1` [Example 33, 5-cyano-N-((1S,3R)-3-(2-(2-fluorophenyl)-6-(1H-1,2,4-triazol-3-yl)-1H-imidazo[4,5-c]pyridin-1-yl)cyclohexyl)-2-methoxybenzamide]: the IC50 is less than 100 nM at BCAT2 [1] and 500 to 1000 nM at BCAT2 [2].

For the compound `O=C(N[C@H]1CCC[C@@H](n2c(-c3ccccc3F)nc3cnc(-c4nc[nH]n4)cc32)C1)c1cc(Cl)cc2ccoc12` [Example 31, 5-chloro-N-((1S,3R)-3-(2-(2-fluorophenyl)-6-(1H-1,2,4-triazol-3-yl)-1H-imidazo[4,5-c]pyridin-1-yl)cyclohexyl)benzofuran-7-carboxamide], the IC50 against BCAT2 [1] and at BCAT2 [2] was less than 100 nM each time.

Turning to `CCN(C)Cc1nc2cnc(-c3nc[nH]n3)cc2n1[C@@H]1CCC[C@H](NC(=O)c2cc(Cl)ccn2)C1` [Example 24, 4-chloro-N-((1S,3R)-3-(2-((ethyl(methyl)amino)methyl)-6-(1H-1,2,4-triazol-3-yl)-1H-imidazo[4,5-c]pyridin-1-yl)cyclohexyl)picolinamide], the IC50 against BCAT2 [1] is 500 to 1000 nM; on BCAT2 [2] (setting [3]), more than 1000 nM.

Regarding `O=C(N[C@H]1CCC[C@@H](n2c(-c3ccccc3OC(F)F)nc3cnc(-c4nc[nH]n4)cc32)C1)c1cc(F)ccn1` [compound 30], the IC50 at BCAT2 [1] and at BCAT2 [2] was less than 100 nM each time.

For `O=C(N[C@H]1CCC[C@@H](n2c(-c3ccccc3F)nc3cnc(-c4nc[nH]n4)cc32)C1)c1cc(Cl)ccc1CO` [Example 40, 5-chloro-N-((1S,3R)-3-(2-(2-fluorophenyl)-6-(1H-1,2,4-triazol-3-yl)-1H-imidazo[4,5-c]pyridin-1-yl)cyclohexyl)-2-(hydroxymethyl)benzamide], the results for the IC50 on BCAT2 [1] and against BCAT2 [2] were less than 100 nM and 100 to 500 nM, respectively.

With `O=C1c2cc(F)ccc2CN1[C@H]1CCC[C@@H](n2c(-c3ccccc3OC(F)F)nc3ccc(-c4nc[nH]n4)c(F)c32)C1` [compound 238], the IC50 against BCAT2 [1] and at BCAT2 [2] was less than 100 nM each time.

`O=C1c2cc(F)ccc2CN1[C@H]1CCC[C@@H](n2c(-c3ncccc3F)nc3cnc(-c4nc[nH]n4)cc32)C1` [Example 170, 6-fluoro-2-((1S,3R)-3-(2-(3-fluoropyridin-2-yl)-6-(1H-1,2,4-triazol-3-yl)-1H-imidazo[4,5-c]pyridin-1-yl)cyclohexyl)isoindolin-1-one]: the IC50 against BCAT2 [1] and against BCAT2 [2] was less than 100 nM in each case.

Turning to `O=C(N[C@H]1CCC[C@@H](n2c(-c3ccccc3F)nc3cnc(-c4nc[nH]n4)cc32)C1)c1cc(F)ccc1F` [Example 58, 2,5-difluoro-N-((1S,3R)-3-(2-(2-fluorophenyl)-6-(1H-1,2,4-triazol-3-yl)-1H-imidazo[4,5-c]pyridin-1-yl)cyclohexyl)benzamide], the IC50 against BCAT2 [1] and against BCAT2 [2] was less than 100 nM each time.

For `O=C1c2cc(F)ccc2CN1[C@H]1CCC[C@@H](n2c(-c3c(F)cccc3F)nc3cnc(-n4nccn4)cc32)[C@@H]1O` [Example 186, 2-((1S,2S,3R)-3-(2-(2,6-difluorophenyl)-6-(2H-1,2,3-triazol-2-yl)-1H-imidazo[4,5-c]pyridin-1-yl)-2-hydroxycyclohexyl)-6-fluoroisoindolin-1-one], the IC50 at BCAT2 [1] and on BCAT2 [2] was less than 100 nM in each case.

Regarding `O=C(N[C@H]1CCC[C@@H](n2c(-c3ccccc3OC(F)F)nc3cnc(-c4nc[nH]n4)cc32)C1)c1cc(Cl)ccc1O` [compound 69], the half-maximal inhibitory concentration (IC50) against BCAT2 [1] and against BCAT2 [2] was less than 100 nM throughout.

With `CCNc1ccc(Cl)cc1C(=O)N[C@H]1CCC[C@@H](n2c(-c3ccccc3F)nc3cnc(-c4nc[nH]n4)cc32)C1` [Example 32, 5-chloro-2-(ethylamino)-N-((1S,3R)-3-(2-(2-fluorophenyl)-6-(1H-1,2,4-triazol-3-yl)-1H-imidazo[4,5-c]pyridin-1-yl)cyclohexyl)benzamide], the IC50 against BCAT2 [1] is 100 to 500 nM; at BCAT2 [2] (setting [3]), more than 1000 nM.

As for `CO[C@H]1C[C@H](N2Cc3ccc(F)cc3C2=O)C[C@H](n2c(-c3c(O)cccc3F)nc3cnc(-c4nc[nH]n4)cc32)C1` [Example 192, 6-fluoro-2-((1R,3S,5R)-3-(2-(2-fluoro-6-hydroxyphenyl)-6-(1H-1,2,4-triazol-3-yl)-1H-imidazo[4,5-c]pyridin-1-yl)-5-methoxycyclohexyl)isoindolin-1-one], the IC50 is less than 100 nM against BCAT2 [1] and 100 to 500 nM against BCAT2 [2].

Turning to `O=C1c2cc(Cl)ccc2CN1[C@H]1CCC[C@@H](n2c(-c3ccccc3F)nc3cnc(-c4nc[nH]n4)cc32)C1` [Example 168, 6-chloro-2-((1S,3R)-3-(2-(2-fluorophenyl)-6-(1H-1,2,4-triazol-3-yl)-1H-imidazo[4,5-c]pyridin-1-yl)cyclohexyl)isoindolin-1-one], the IC50 on BCAT2 [1] and against BCAT2 [2] was less than 100 nM in each case.

Regarding `O=C1c2cc(Cl)ccc2OCN1[C@H]1CCC[C@@H](n2c(-c3ccccc3F)nc3cnc(-c4nc[nH]n4)cc32)C1` [Example 202, 6-chloro-3-((1S,3R)-3-(2-(2-fluorophenyl)-6-(1H-1,2,4-triazol-3-yl)-1H-imidazo[4,5-c]pyridin-1-yl)cyclohexyl)-2,3-dihydro-4H-benzo[e][1,3]oxazin-4-one], the IC50 at BCAT2 [1] and at BCAT2 [2] was less than 100 nM in each case.

In the case of `O=C1c2cc(F)ccc2CN1[C@H]1CCC[C@@H](n2c(-c3c(F)cccc3OC(F)F)nc3cnc(-c4nc[nH]n4)cc32)[C@@H]1O` [compound 189], the concentration for half-maximal inhibition (IC50) on BCAT2 [1] and against BCAT2 [2] was less than 100 nM in each case.

As for `CN(C)Cc1ccc(Cl)cc1C(=O)N[C@H]1CCC[C@@H](n2c(-c3ccccc3F)nc3cnc(-c4nc[nH]n4)cc32)C1` [Example 37, 5-chloro-2-((dimethylamino)methyl)-N-((1S,3R)-3-(2-(2-fluorophenyl)-6-(1H-1,2,4-triazol-3-yl)-1H-imidazo[4,5-c]pyridin-1-yl)cyclohexyl)benzamide], the results for the IC50 against BCAT2 [1] and at BCAT2 [2] were less than 100 nM and 500 to 1000 nM, respectively.

Consider `COc1ccc(Cl)cc1C(=O)N[C@H]1CCCC[C@@H](n2c(-c3ccccc3F)nc3cnc(-c4nc[nH]n4)cc32)[C@@H]1O` [Example 105, 5-chloro-N-((1S,2R,3R)-3-(2-(2-fluorophenyl)-6-(1H-1,2,4-triazol-3-yl)-1H-imidazo[4,5-c]pyridin-1-yl)-2-hydroxycycloheptyl)-2-methoxybenzamide], for which the IC50 at BCAT2 [1] and against BCAT2 [2] was less than 100 nM each time.

For the compound `CN1C[C@H](NC(=O)c2cc(Cl)ccc2F)C[C@H](n2c(-c3ccccc3F)nc3cnc(-c4nc[nH]n4)cc32)C1` [Example 145, 5-chloro-2-fluoro-N-((3R,5S)-5-(2-(2-fluorophenyl)-6-(1H-1,2,4-triazol-3-yl)-1H-imidazo[4,5-c]pyridin-1-yl)-1-methylpiperidin-3-yl)benzamide], the results for the IC50 at BCAT2 [1] and on BCAT2 [2] were less than 100 nM and 100 to 500 nM, respectively.

Take `O=C1c2ccc(F)cc2CN1[C@H]1CCC[C@@H](n2c(-c3ccccc3F)nc3cnc(-c4nc[nH]n4)cc32)C1` [Example 176, 5-fluoro-2-((1S,3R)-3-(2-(2-fluorophenyl)-6-(1H-1,2,4-triazol-3-yl)-1H-imidazo[4,5-c]pyridin-1-yl)cyclohexyl)isoindolin-1-one]: the IC50 was less than 100 nM against BCAT2 [1] and 100 to 500 nM at BCAT2 [2].

Consider `CC(=O)N1C[C@H](NC(=O)c2cc(F)ccn2)C[C@H](n2c(-c3ccccc3F)nc3cnc(-c4nc(C)co4)cc32)C1` [Example 167, N-((3R,5S)-1-acetyl-5-(2-(2-fluorophenyl)-6-(4-methyloxazol-2-yl)-1H-imidazo[4,5-c]pyridin-1-yl)piperidin-3-yl)-4-fluoropicolinamide], for which the IC50 against BCAT2 [1] and on BCAT2 [2] was less than 100 nM each time.

Take `O=C(N[C@H]1CCC[C@@H](n2c(-c3ccccc3F)nc3ccc(-c4nc[nH]n4)cc32)C1)c1cc(F)ccn1` [Example 226, 4-fluoro-N-((1S,3R)-3-(2-(2-fluorophenyl)-6-(1H-1,2,4-triazol-3-yl)-1H-benzo[d]imid-azol-1-yl)cyclohexyl)picolin-amide]: the IC50 was less than 100 nM against BCAT2 [1] and 100 to 500 nM against BCAT2 [2].

Take `O=C(N[C@H]1CCC[C@@H](n2c(-c3ccccc3OC(F)F)nc3cnc(-c4nc[nH]n4)cc32)C1)c1cc(Cl)ccc1OCCO` [compound 73]: the concentration for half-maximal inhibition (IC50) against BCAT2 [1] and against BCAT2 [2] was less than 100 nM each time.

Consider `O=C(N[C@H]1CCC[C@@H](n2c(-c3ccccc3F)nc3cnc(-c4nc[nH]n4)cc32)C1)c1cc(Cl)ccn1` [Example 7, 4-chloro-N-((1S,3R)-3-(2-(2-fluorophenyl)-6-(1H-1,2,4-triazol-3-yl)-1H-imidazo[4,5-c]pyridin-1-yl)cyclohexyl)picolinamide], for which the IC50 at BCAT2 [1] and at BCAT2 [2] was less than 100 nM throughout.
